The source of these data is US20230257390A1, “COMPOUNDS WHICH INHIBIT RNA POLYMERASE AND THEIR USE” (The Johns Hopkins University, priority 2020, published 2023).

Structures can show the parent of a compound that is named as a salt.

One assay deals with RPA194. Kind of assay: RPA194 immunofluorescence high-content imaging in A375 cells (Pol I inhibition). The format is cell-based. Particulars: treated for 4 hours, top concentration 10 μM. On the procedure: Cell culture: A375 cells (CRL-1619, ATCC) were grown in DMEM (GIBCO) supplemented with 10% fetal bovine serum (GIBCO) in 5% CO2 at 37° C.
Cell treatment and Imaging: 18 hours post-seeding in cell carrier black 384-well plates (PerkinElmer) at 15 000 cells/well, A375 cells were treated for 4 hours with a positive control or test compounds (9 serial semi-log dilutions, top concentration 10 μM). Upon treatment A375 cells were (i) fixed for 15 min at RT with 4% of paraformaldehyde, (ii) permeabilized for 20 min at RT with 0.1-0.5% of NP-40, (iii) incubated with primary antibodies at 4° C.: anti-RPA194 (1:1000-1:1250 dilution, sc-48385, Santa Cruz Biotechnology) and anti-gH2Ax (1:5000 dilution, 81299, Abcam or 1:4000, JBW302, Millipore) (iv) incubated for 1 h at RT with Hoechst (1:5000 dilution, H3570, ThermoFisher) and secondary antibodies: anti-mouse-AlexaFluor488 (1:2000 dilution, A11001, ThermoFisher) and anti-rabbit-AlexaFluor647 (1:2000 dilution, A21443, ThermoFisher) or goat anti-mouse AlexaFluor-594 (1:1000 dilution). Images were acquired on an Operetta CLS High-Content Analysis System (PerkinElmer) (40× objective; 9 fields/well) and processed using the Columbus Image Analysis System (PerkinElmer) or by using Molecular Devices ImageXpress Micro XLS High Content Imager and MetaXpress high-content acquisition and analysis software.
In the table below, (+) is associated with a pIC50 5.02 to 5.8; (++) with pIC50 5.8 to 6.3; and plus sing (+++) with a pIC50 above 6.3.
As to `O=C(NCCN1C[C@@H](O)[C@H](O)C1)c1cccn2c(=O)c3cc4c(cc3nc12)OC(F)(F)O4` [Compound 101, N-(2-((3R,4R)-3,4-dihydroxypyrrolidin-1-yl)ethyl)-2,2-difluoro-11-oxo-11H-[1,3]dioxolo[4,5-g]pyrido[2,1-b]quinazoline-6-carboxamide], the “Activity Range (pIC50)” value is recorded as “+ ((+) is associated with a pIC50 5.02 to 5.8)”.

Turning to `O=C(NCCN1CCC(O)C1)c1cccn2c(=O)c3cc4c(cc3nc12)OC(F)(F)O4` (centres unmarked) [Compound 102, 2,2-difluoro-N-(2-(3-hydroxypyrrolidin-1-yl)ethyl)-11-oxo-11H-[1,3]dioxolo[4,5-g]pyrido[2,1-b]quinazoline-6-carboxamide; hydrochloride], the “Activity Range (pIC50)” value was “+ ((+) is associated with a pIC50 5.02 to 5.8)”. On the same count and under the same terms, the result for `O=C1CCN(CCNC(=O)c2cccn3c(=O)c4cc5c(cc4nc23)OC(F)(F)O5)CC1` [Compound 103, 2,2-difluoro-11-oxo-N-(2-(4-oxopiperidin-1-yl)ethyl)-11H-[1,3]dioxolo[4,5-g]pyrido[2,1-b]quinazoline-6-carboxamide] reads “++ ((++) with pIC50 5.8 to 6.3)”; that for `CN(C)CCNC(=O)c1cccn2c(=O)c3cc4c(cc3nc12)OC(F)(F)O4` [Compound 104, N-(2-(dimethylamino)ethyl)-2,2-difluoro-11-oxo-11H-[1,3]dioxolo[4,5-g]pyrido[2,1-b]quinazoline-6-carboxamide; hydrochloride], “+ ((+) is associated with a pIC50 5.02 to 5.8)”; that for `O=C(NCCN1CCC(O)CC1)c1cccn2c(=O)c3cc4c(cc3nc12)OC(F)(F)O4` [Compound 105, 2,2-difluoro-N-(2-(4-hydroxypiperidin-1-yl)ethyl)-11-oxo-11H-[1,3]dioxolo[4,5-g]pyrido[2,1-b]quinazoline-6-carboxamide; hydrochloride], “++ ((++) with pIC50 5.8 to 6.3)”. Turning to `CN(C)C(C)(C)CNC(=O)c1cccn2c(=O)c3cc4c(cc3nc12)OC(F)(F)O4` [Compound 106, N-(2-(dimethylamino)-2-methylpropyl)-2,2-difluoro-11-oxo-11H-[1,3]dioxolo[4,5-g]pyrido[2,1-b]quinazoline-6-carboxamide; hydrochloride], the “Activity Range (pIC50)” value is recorded as “+ ((+) is associated with a pIC50 5.02 to 5.8)”. For the compound `O=C(NCCN1CCCC1)c1cccn2c(=O)c3cc4c(cc3nc12)OC(F)(F)O4` [Compound 107, 2,2-difluoro-11-oxo-N-(2-(pyrrolidin-1-yl)ethyl)-11H-[1,3]dioxolo[4,5-2]pyrido[2,1-b]quinazoline-6-carboxamide; hydrochloride], the “Activity Range (pIC50)” value is reported as “+++ ((+++) with a pIC50 above 6.3)”. Same read-out and setting: next, `O=C(NCCN1CCCC1)c1cccn2c(=O)c3cc4c(cc3nc12)OCO4` [Compound 108, 11-oxo-N-(2-(pyrrolidin-1-yl)ethyl)-11H-[1,3]dioxolo[4,5-g]pyrido[2,1-b]quinazoline-6-carboxamide; hydrochloride]: “++ ((++) with pIC50 5.8 to 6.3)”. As to `Cc1cc2nc3c(C(=O)NCCN(C)C)cccn3c(=O)c2cc1C` [Compound 109, N-(2-(dimethylamino)ethyl)-2,3-dimethyl-11-oxo-11H-pyrido[2,1-b]quinazoline-6-carboxamide; hydrochloride], the “Activity Range (pIC50)” value is reported as “++ ((++) with pIC50 5.8 to 6.3)”. The same measure, in the same setting: next, `Cc1cc2nc3c(C(=O)NCCN4CCCC4)cccn3c(=O)c2cc1C` [Compound 110, 2,3-dimethyl-11-oxo-N-(2-(pyrrolidin-1-yl)ethyl)-11H-pyrido[2,1-b]quinazoline-6-carboxamide; hydrochloride]: “++ ((++) with pIC50 5.8 to 6.3)”; `CN(C)CCNC(=O)c1cccn2c(=O)c3cc4c(cc3nc12)CCCC4` [Compound 111, N-(2-(dimethylamino)ethyl)-12-oxo-7,9,10,12-tetrahydro-8H-benzo[g]pyrido[2,1-b]quinazoline-4-carboxamide; hydrochloride]: “+ ((+) is associated with a pIC50 5.02 to 5.8)”; `O=C(NCCN1CCCC1)c1cccn2c(=O)c3cc4c(cc3nc12)CCCC4` [Compound 112, 12-oxo-N-(2-(pyrrolidin-1-yl)ethyl)-7,9,10,12-tetrahydro-8H-benzo[g]pyrido[2,1-b]quinazoline-4-carboxamide; hydrochloride]: “++ ((++) with pIC50 5.8 to 6.3)”. Consider `O=C(NCCN1CCCC1)c1cccn2c(=O)c3cc4c(cc3nc12)OCCO4` [Compound 113, 12-oxo-N-(2-(pyrrolidin-1-yl)ethyl)-2,3-dihydro-12H-[1,4]dioxino[2,3-2]pyrido[2,1-b]quinazoline-7-carboxamide; hydrochloride], for which the “Activity Range (pIC50)” value is reported as “+ ((+) is associated with a pIC50 5.02 to 5.8)”. On the same count and under the same terms, the result for `CN(C)CCNC(=O)c1cccn2c(=O)c3cc4c(cc3nc12)OCCO4` [Compound 114, N-(2-(dimethylamino)ethyl)-12-oxo-2,3-dihydro-12H-[1,4]dioxino[2,3-g]pyrido[2,1-b]quinazoline-7-carboxamide; hydrochloride] reads “+ ((+) is associated with a pIC50 5.02 to 5.8)”; that for `Cc1ccc2c(=O)n3cccc(C(=O)NCCN4CC[C@@H](O)C4)c3nc2c1C` [Compound 115, (R)-N-(2-(3-hydroxypyrrolidin-1-yl)ethyl)-3,4-dimethyl-11-oxo-11H-pyrido[2,1-b]quinazoline-6-carboxamide; hydrochloride], “+++ ((+++) with a pIC50 above 6.3)”. Same read-out and setting: the result for `Cc1ccc2c(=O)n3cccc(C(=O)NCCN4CCCC4)c3nc2c1` [Compound 116, 3-methyl-11-oxo-N-(2-(pyrrolidin-1-yl)ethyl)-11H-pyrido[2,1-b]quinazoline-6-carboxamide;hydrochloride] reads “+ ((+) is associated with a pIC50 5.02 to 5.8)”. Regarding `Cc1cccc2c(=O)n3cccc(C(=O)NCCN4CCCC4)c3nc12` [Compound 117, 4-methyl-11-oxo-N-(2-(Pyrrolidin-1-Yl)ethyl)-11H-pyrido[2,1-b]quinazoline-6-carboxamide;hydrochloride], the “Activity Range (pIC50)” value is “++ ((++) with pIC50 5.8 to 6.3)”.

Regarding `O=C(NCCN1CCCC1)c1cccn2c(=O)c3cccc(-c4ccccc4)c3nc12` [Compound 118, 11-oxo-4-phenyl-N-(2-(pyrrolidin-1-yl)ethyl)-11H-pyrido[2,1-b]quinazoline-6-carboxamide; hydrochloride], the “Activity Range (pIC50)” value is reported as “+ ((+) is associated with a pIC50 5.02 to 5.8)”. Still for that read-out and setting: the result for `O=C(NCCN1CCCC1)c1cccn2c(=O)c3ccc(-c4ccccc4)cc3nc12` [Compound 119, 11-oxo-3-phenyl-N-(2-(pyrrolidin-1-yl)ethyl)-11H-pyrido[2,1-b]quinazoline-6-carboxamide; hydrochloride] reads “+ ((+) is associated with a pIC50 5.02 to 5.8)”. The same measure, in the same setting: the result for `Cc1ccc2c(=O)n3cccc(C(=O)NCCN4CCCC4)c3nc2c1C` [Compound 120, 3,4-dimethyl-11-oxo-N-(2-(pyrrolidin-1-yl)ethyl)-11H-pyrido[2,1-b]quinazoline-6-carboxamide; hydrochloride] reads “+++ ((+++) with a pIC50 above 6.3)”. The same measure, in the same setting: next, `O=C(NCCN1CCCC1)c1cccn2c(=O)c3ccc4c(c3nc12)OC(F)(F)O4` [Compound 121, 2,2-difluoro-6-oxo-N-(2-(pyrrolidin-1-yl)ethyl)-6H-[1,3]dioxolo[4,5-h]pyrido[2,1-b]quinazoline-11-carboxamide;hydrochloride]: “+ ((+) is associated with a pIC50 5.02 to 5.8)”.

The subject of another assay is NCI60 cancer cell lines.
Assay: not given
Particulars: cited from earlier work.
For the compound `CN(C)CCNC(=O)c1cccn2c(=O)c3cc4ccccc4cc3nc12` [BMH-21, 12H-Benzo[g]pyrido[2,1-b]quinazoline-4-carboxamide, N-[2(dimethylamino)ethyl]-12-oxo], the anticancer activity entry is recorded as “anticancer activity”.

The test system of another assay is tumor burden.
Assay: not given
Conditions: mouse xenograft assays; cited from earlier work.
With `CN(C)CCNC(=O)c1cccn2c(=O)c3cc4ccccc4cc3nc12` [BMH-21, 12H-Benzo[g]pyrido[2,1-b]quinazoline-4-carboxamide, N-[2(dimethylamino)ethyl]-12-oxo], the tumor burden result is “reduced tumor burden”.
